Source: US20250275953A1, “VODOBATINIB FOR REDUCING PROGRESSION OF PARKINSON'S DISEASE” (Sun Pharma Advanced Research Company Ltd., priority 2022, published 2025)

Target: Abl (Homo sapiens, UniProt P00519)
Test: Biochemical kinase assay, native Abl (radiometric substrate phosphorylation)
Protocol: Conventional biochemical kinase assays, using radioactivity and fluorescence as readouts, were used to derive half maximal-inhibitory concentrations (IC50) values.
Inhibition of c-Abl kinase activity by vodobatinib was determined in a radiometric detection assay using γ-33P-labeled-ATP. […] (Abl substrate peptide), 10 mM magnesium acetate, and [γ-33P-ATP]. The reaction was initiated by addition of an MgATP mix. Following incubation for 40 minutes at room temperature, the reaction was stopped by addition of 3% phosphoric acid solution. The radiolabeled substrate was separated onto a P30 filtermat, which was washed with 75 mM phosphoric acid and methanol, and dried, following which radioactivity incorporated into the substrate was determined by scintillation counting. Similar assessments were also carried out using recombinant murine c-Abl enzyme using the identical assay format as described above.

Sequence of Abl (P00519 whole entry): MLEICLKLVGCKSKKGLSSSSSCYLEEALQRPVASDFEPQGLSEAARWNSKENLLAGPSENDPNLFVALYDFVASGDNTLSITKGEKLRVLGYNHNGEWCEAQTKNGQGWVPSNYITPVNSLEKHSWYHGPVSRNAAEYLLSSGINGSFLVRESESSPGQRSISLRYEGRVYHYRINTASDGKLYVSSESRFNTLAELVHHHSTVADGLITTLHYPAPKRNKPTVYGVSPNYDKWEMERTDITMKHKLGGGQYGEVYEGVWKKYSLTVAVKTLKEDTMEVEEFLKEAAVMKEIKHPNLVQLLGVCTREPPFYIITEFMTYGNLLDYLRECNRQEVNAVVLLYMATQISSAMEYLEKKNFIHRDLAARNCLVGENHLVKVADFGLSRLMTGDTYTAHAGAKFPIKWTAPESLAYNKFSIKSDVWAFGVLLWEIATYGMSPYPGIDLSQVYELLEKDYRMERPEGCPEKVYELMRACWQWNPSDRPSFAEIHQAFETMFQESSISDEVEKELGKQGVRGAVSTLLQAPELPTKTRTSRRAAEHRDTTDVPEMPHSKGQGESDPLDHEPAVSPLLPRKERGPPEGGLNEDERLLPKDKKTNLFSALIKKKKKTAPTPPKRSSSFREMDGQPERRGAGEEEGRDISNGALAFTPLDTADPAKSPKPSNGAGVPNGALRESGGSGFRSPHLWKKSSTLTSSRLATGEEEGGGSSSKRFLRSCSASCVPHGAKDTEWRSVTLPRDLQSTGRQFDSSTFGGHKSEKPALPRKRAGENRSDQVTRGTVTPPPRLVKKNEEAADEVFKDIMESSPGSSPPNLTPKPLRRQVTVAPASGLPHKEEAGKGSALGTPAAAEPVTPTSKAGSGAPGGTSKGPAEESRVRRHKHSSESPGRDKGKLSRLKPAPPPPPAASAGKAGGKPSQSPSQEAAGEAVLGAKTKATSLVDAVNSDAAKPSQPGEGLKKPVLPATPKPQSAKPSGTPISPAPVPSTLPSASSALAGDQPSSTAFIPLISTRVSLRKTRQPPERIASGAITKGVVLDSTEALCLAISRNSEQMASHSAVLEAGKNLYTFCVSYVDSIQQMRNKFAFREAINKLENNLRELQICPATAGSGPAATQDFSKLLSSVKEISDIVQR

## Cc1ccc(C(=O)NNC(=O)c2c(C)cccc2Cl)cc1C#Cc1cnc2ccccc2c1 [N′-(2-chloro-6-methylbenzoyl)-4-methyl-3-[2-(3-quinolyl)ethynyl]-benzohydrazide]
0.9 nM vs 20 nM
  times more potent than nilotinib: 20
Table 1
  IC50: 0.9 nM
